Our source for the Ki values is US12286435B2, “Compound having benzo seven-membered ring structure, preparation method therefor, and use thereof” (BIONNA (BEIJING) MEDICAL TECHNOLOGY CO., LTD., priority 2019, dated 2025).

One assay concerns the target BRD4 BD1 protein (Homo sapiens (Human), UniProt O60885). Kind of assay: Fluorescence polarization binding affinity (Ki) with BRD4 BD1 protein. To be noted: fluorescence polarization; Ki calculated from IC50.
Another assay deals with BRD4 BD2 protein (Homo sapiens (Human), UniProt O60885). Description: Fluorescence polarization binding affinity (Ki) with BRD4 BD2 protein. To be noted: fluorescence polarization; Ki calculated from IC50.

A word on the Ki: it is the dissociation constant of the complex between target and ligand, obtained from inhibition or displacement.

On to `Cc1nnn2c1-c1ccc(C3=CCN(C(C)C)CC3)cc1C(Nc1cc(Cl)ccc1F)CC2` (stereo not drawn) [BI68, N-(5-chloro-2-fluorophenyl)-9-(1-isopropyl-1,2,3,6-tetrahydropyridin-4-yl)-1-methyl-6,7-dihydro-5H-benzo[c][1,2,3]triazolo[1,5-a]azepin-7-amine 2,2,2-trifluoroacetate], for which the figures for the Ki at BRD4 BD1 protein and on BRD4 BD2 protein were 1110 nM and 45.1 nM, respectively.

As for `Cc1cc(NC2CCn3nnc(C)c3-c3ccc(C4=CCNCC4)cc32)n(C)n1` (stereo not drawn) [BJ28, N-(1,3-dimethyl-1H-pyrazol-5-yl)-1-methyl-9-(1,2,3,6-tetrahydropyridin-4-yl)-6,7-dihydro-5H-benzo[c][1,2,3]triazolo[1,5-a]azepin-7-amine 2,2,2-trifluoroacetate], the Ki was 1830 nM on BRD4 BD1 protein and 250 nM on BRD4 BD2 protein.

Consider `Cc1nnn2c1-c1ccc(C3=CCNCC3)cc1C(Nc1ccc(F)cc1)CC2` (stereo not drawn) [BJ122, N-(4-fluorophenyl)-1-methyl-9-(1,2,3,6-tetrahydropyridin-4-yl)-6,7-dihydro-5H-benzo[c][1,2,3]triazolo[1,5-a]azepin-7-amine 2,2,2-trifluoroacetate], for which the figures for the Ki at BRD4 BD1 protein and on BRD4 BD2 protein were 757 nM and 68.6 nM, respectively.

Take `Cc1nnn2c1-c1ccc(C3=CCNC3)cc1C(Nc1cccc(Cl)c1)CC2` (stereo not drawn) [BJ179, N-(3-chlorophenyl)-9-(2,5-dihydro-1H-pyrrol-3-yl)-1-methyl-6,7-dihydro-5H-benzo[c][1,2,3]triazolo[1,5-a]azepin-7-amine 2,2,2-trifluoroacetate]: the Ki is 436 nM on BRD4 BD1 protein and 25.9 nM on BRD4 BD2 protein.

`Cc1nnn2c1-c1ccc(C3=CCNC3)cc1C(Nc1cccc(O)c1)CC2` (stereo not drawn) [BJ183, 3-((9-(2,5-dihydro-1H-pyrrol-3-yl)-1-methyl-6,7-dihydro-5H-benzo[d][1,2,3]triazolo[1,5-a]azepin-7-yl)amino)phenol 2,2,2-trifluoroacetate]: the Ki at BRD4 BD1 protein was 939 nM; on BRD4 BD2 protein, 45 nM.

For the compound `Cc1nnn2c1-c1ccc(-c3cnn(C)c3)cc1C(Nc1cc(F)cc(Cl)c1)CC2` (stereo not drawn) [BJ193, N-(3-chloro-5-fluorophenyl)-1-methyl-9-(1-methyl-1H-pyrazol-4-yl)-6,7-dihydro-5H-benzo[c][1,2,3]triazolo[1,5-a]azepin-7-amine], the Ki at BRD4 BD1 protein is 28.3 nM; on BRD4 BD2 protein it was 8.4 nM.

For the compound `COc1ccc2c(c1)C(Nc1ccc(Cl)cc1)CCc1onc(C)c1-2` (stereo not drawn) [FA02, N-(4-chlorophenyl)-8-methoxy-1-methyl-5,6-dihydro-4H-benzo[6,7]cyclohepta[1,2-d]isoxazol-6-amine], the Ki at BRD4 BD1 protein is 58.3 nM; at BRD4 BD2 protein, 37.1 nM.

Regarding `CCn1cc(-c2ccc3c(c2)C(Nc2ccc(Cl)cc2)CCc2onc(C)c2-3)cn1` (stereo not drawn) [LA93, N-(4-chlorophenyl)-1-methyl-8-(1-ethyl-1H-pyrazol-4-yl)-5,6-dihydro-4H-benzo[6,7]cyclohepta[1,2-d]isoxazol-6-amine], the Ki on BRD4 BD1 protein is 76.3 nM; on BRD4 BD2 protein it was 46.7 nM.

For the compound `COC(=O)c1ccccc1NC1CCn2nnc(C)c2-c2ccc(-c3cnn(C)c3)cc21` (stereo not drawn) [LB160, methyl 2-((1-methyl-9-(1-methyl-1H-pyrazol-4-yl)-6,7-dihydro-5H-benzo[c][1,2,3]triazolo[1,5-a]azepin-7-yl)amino)benzoate], the Ki is 96.4 nM on BRD4 BD1 protein and 12.5 nM at BRD4 BD2 protein.

For `Cc1nnn2c1-c1ccc(C3=CCNCC3)cc1C(Nc1cccc(C#N)c1)CC2` (stereo not drawn) [LC75, 3-((1-methyl-9-(1,2,3,6-tetrahydropyridin-4-yl)-6,7-dihydro-5H-benzo[c][1,2,3]triazolo[1,5-a]azepin-7-yl)amino)benzonitrile 2,2,2-trifluoroacetate], the Ki at BRD4 BD1 protein is 2290 nM; on BRD4 BD2 protein, 116 nM.

Turning to `Cc1nnn2c1-c1ccc(C3=CCNCC3)cc1C(Nc1ccccc1Cl)CC2` (stereo not drawn) [LC84, N-(2-chlorophenyl)-1-methyl-9-(1,2,3,6-tetrahydropyridin-4-yl)-6,7-dihydro-5H-benzo[c][1,2,3]triazolo[1,5-a]azepin-7-amine 2,2,2-trifluoroacetate], the Ki is 845 nM on BRD4 BD1 protein and 37.8 nM on BRD4 BD2 protein.

Turning to `Cc1nnn2c1-c1ccc(C3=CCNCC3)cc1C(Nc1cccc(CC(=O)O)c1)CC2` (stereo not drawn) [LC87, 2-(3-((1-methyl-9-(1,2,3,6-tetrahydropyridin-4-yl)-6,7-dihydro-5H-benzo[c][1,2,3]triazolo[1,5-a]azepin-7-yl)amino)phenyl) acetic acid], the Ki at BRD4 BD1 protein was greater than 20000 nM; at BRD4 BD2 protein it was 142 nM.

In the case of `Cc1nnn2c1-c1ccc(-c3cnn(C)c3)cc1C(Nc1ccccc1CCN(C)C)CC2` (stereo not drawn) [LC99, N-(2-(2-(dimethylamino)ethyl)phenyl)-1-methyl-9-(1-methyl-1H-pyrazol-4-yl)-6,7-dihydro-5H-benzo[c][1,2,3]triazolo[1,5-a]azepin-7-amine], the results for the Ki at BRD4 BD1 protein and on BRD4 BD2 protein were 38.4 nM and 12.9 nM, respectively.

Turning to `Cc1nnn2c1-c1ccc(-c3cnn(C)c3)cc1C(Nc1cccc(CCN(C)C)c1)CC2` (stereo not drawn) [LC101, N-(3-(2-(dimethylamino)ethyl)phenyl)-1-methyl-9-(1-methyl-1H-pyrazol-4-yl)-6,7-dihydro-5H-benzo[c][1,2,3]triazolo[1,5-a]azepin-7-amine], the Ki at BRD4 BD1 protein was 89 nM; at BRD4 BD2 protein, 13.6 nM.

`Cc1nnn2c1-c1ccc(C3=CCNCC3)cc1C(Nc1ccc(O)cc1)CC2` (stereo not drawn) [LC117, 4-((1-methyl-9-(1,2,3,6-tetrahydropyridin-4-yl)-6,7-dihydro-5H-benzo[c][1,2,3]triazolo[1,5-a]azepin-7-yl)amino)phenol 2,2,2-trifluoroacetate]: the Ki on BRD4 BD1 protein was 2370 nM; at BRD4 BD2 protein, 116 nM.

As for `Cc1nnn2c1-c1ccc(C3=CCNCC3)cc1C(Nc1ccccc1O)CC2` (stereo not drawn) [LC127, 2-((1-methyl-9-(1,2,3,6-tetrahydropyridin-4-yl)-6,7-dihydro-5H-benzo[c][1,2,3]triazolo[1,5-a]azepin-7-yl)amino)phenol 2,2,2-trifluoroacetate], the Ki on BRD4 BD1 protein was 793 nM; on BRD4 BD2 protein, 41.5 nM.

As to `Cc1nnn2c1-c1ccc(C3=CCNCC3)cc1C(Nc1ccc(C#N)cc1)CC2` (stereo not drawn) [LC128, 4-((1-methyl-9-(1,2,3,6-tetrahydropyridin-4-yl)-6,7-dihydro-5H-benzo[c][1,2,3]triazolo[1,5-a]azepin-7-yl)amino)benzonitrile 2,2,2-trifluoroacetate], the Ki on BRD4 BD1 protein was 467 nM; on BRD4 BD2 protein, 56.2 nM.

With `CNC(=O)Cc1cccc(NC2CCn3nnc(C)c3-c3ccc(C4=CCNCC4)cc32)c1` (stereo not drawn) [LC131], the Ki was 835 nM at BRD4 BD1 protein and 86.3 nM on BRD4 BD2 protein.

For the compound `CNC(=O)Cc1ccccc1NC1CCn2nnc(C)c2-c2ccc(C3=CCNCC3)cc21` (stereo not drawn) [LC132], the Ki is 724 nM on BRD4 BD1 protein and 55.9 nM at BRD4 BD2 protein.

Take `Cc1nnn2c1-c1ccc(C3=CCNCC3)cc1C(Nc1ccc(OCCO)cc1)CC2` (stereo not drawn) [LC133, 2-(4-((1-methyl-9-(1,2,3,6-tetrahydropyridin-4-yl)-6,7-dihydro-5H-benzo[c][1,2,3]triazolo[1,5-a]azepin-7-yl)amino)phenoxy)ethan-1-ol 2,2,2-trifluoroacetate]: the Ki at BRD4 BD1 protein is 2190 nM; at BRD4 BD2 protein, 207 nM.

As for `Cc1nnn2c1-c1ccc(-c3cnn(C)c3)cc1C(Nc1ccccc1C#N)CC2` (stereo not drawn) [LC136, 2-((1-methyl-9-(1-methyl-1H-pyrazol-4-yl)-6,7-dihydro-5H-benzo[c][1,2,3]triazolo[1,5-a]azepin-7-yl)amino)benzonitrile], the inhibition constant Ki on BRD4 BD1 protein is 49.7 nM; at BRD4 BD2 protein, 8.83 nM.
